{
  "source": "patent US20130150455A1",
  "about": "“METHOD FOR TREATING MECHANICAL ALLODYNIA COMPRISING ADMINISTRATION OF EUGENOL” (SNU R&DB FOUNDATION, priority 2011, published 2013)",
  "key": {"Ih conductance": {"test_system": "Ih conductance", "conditions": "cited from earlier work"}, "injured nerve fibers": {"test_system": "injured nerve fibers", "conditions": "in vivo; cited from earlier work"}, "[1]": {"test_system": "voltage-gated sodium channels (VGSCs)", "experiment": "VGSC currents in TG neurons in normal bath solution", "type": "cell-based, rat", "conditions": "200 μM, n=3", "procedure": "(B) The left figure represents the comparison of action potentials at an expanded time scale before and after exposure to eugenol (200 μM), and the Right figure represents a summary of the dV/dt analysis. (C) The left figure represents superimposed current traces before and during exposure to eugenol (200 μM) in the normal bath solution where inward currents result from VGSCs, and the right figure represents a summary of eugenol-induced VGSC currents inhibition (n=3).\nWhole-cell recordings were made using patch electrodes (4 to 6 MΩ) pulled from borosilicate glass on a Brown-Flaming P-97 horizontal micropipette puller (Sutter Instruments, Novato, Calif.). Voltage- and current-clamp experiments were performed using an HEKA EPC9 amplifier and digitized using ITC16 and Pulse v8.54 software (both from HEKA, Lambrecht/Pfalz, Germany). Signals were filtered at 1 kHz and sampled at 3 kHz. Series resistance was typically less than 20 MΩ and was compensated by about 70 to 80%. Electrical recordings were performed at room temperature. The 3 M KCl agar bridge (Warner Instruments, Hamden, Conn.) is used to avoid high liquid junction potentials. Data were analyzed by Origin 6.0 software.\nExtracellular solution containing 140 mM NaCl, 2 mM CaCl2, 1 mM MgCl2, 5 mM KCl, 10 mM HEPES, 10 mM D-glucose was adjusted to pH 7.4 with NaOH, 290 to 310 mOsm. […]"}, "TG neurons": {"test_system": "TG neurons", "experiment": "Current-clamp action potential firing in TG neurons", "type": "cell-based, rat", "conditions": "200 μM", "procedure": "TG neurons from 2- to 7-day-old neonatal rats or adult rats (200 to 300 g) were prepared as previously described [Fang, Z. et al., J. Biol. Chem., 2007, 282: 4757-4764]. Briefly, TG neurons prepared in 4° C. Hanks balanced salt solution (Welgene, Daegu, Korea) were incubated in 2 mL Hanks balanced salt solution containing 0.167% trypsin (Invitrogen, Carlsbad, Calif.) at 37° C. for 40 min. The cells were washed in DMEM and triturated with a flame-polished Pasteur pipette to separate cells and remove processes, and subsequently centrifuged (750 RPM, 5 min), resuspended and placed on 0.5 mg/mL poly-L-ornithine (Sigma, St. Louis, Mo.)-coated glass coverslips (12 mm in diameter). The cells were maintained at 37° C. in a […]/5% CO2 incubator.\nWhole-cell recordings were made using patch electrodes (4 to 6 MΩ) pulled from borosilicate glass on a Brown-Flaming P-97 horizontal micropipette puller (Sutter Instruments, Novato, Calif.). Voltage- and current-clamp experiments were performed using an HEKA EPC9 amplifier and digitized using ITC16 and Pulse v8.54 software (both from HEKA, Lambrecht/Pfalz, Germany). […] Data were analyzed by Origin 6.0 software. […]\nIh was elicited by a 2 s pulse from a holding potential of −50 mV to −120 mV in 10 mV steps. […] The reversal potential of the eugenol-sensitive currents was determined by measuring the tail currents. […]"}, "ION-CCI rats [2]": {"test_system": "ION-CCI rats", "conditions": ">50 μg; cited from earlier work"}, "[3]": {"test_system": "voltage-gated sodium channels (VGSCs)", "conditions": "conventional concentration, equals 50 μg; cited from earlier work"}, "[4]": {"test_system": "hyperpolarization-activated current (Ih) in TG neurons (HCN channels)", "experiment": "Whole-cell recordings of Ih in TG neurons", "type": "cell-based, rat"}, "ION-CCI rats [5]": {"test_system": "ION-CCI rats", "experiment": "Thermal hyperalgesia, head withdrawal latency to radiant heat", "type": "in vivo, rat", "procedure": "(§1) All surgical and experimental procedures were reviewed and approved by the Institutional Animal Care and Use Committee at the School of Dentistry, Seoul National University. Animal treatments were performed in strict accordance with the ethical guidelines of the International Association for the Study of Pain for the investigations of experimental pain in conscious animals [Zimmermann, M., Pain, 1983, 16: 109-110], and the National Institute of Health Guide for the Care and Use of Laboratory Animals. Behavioral tests were carried out on male Sprague Dawley rats (OrientBio, Sungnam, Korea) weighing 200-250 g. The rats were maintained in a temperature-controlled room with a 12/12-h light/dark cycle and fed food and water ad libitum. The animals were allowed to habituate to the housing facilities for 1 week before the experiments.\n(§2) Surgical procedures were performed under 0.5 mL/kg (i.m.) of a mixture of equal volumes of ketamine (100 mg/mL) and xylazine (20 mg/mL) anesthesia. Under anesthesia, a chronic constriction injury of the infraorbital nerve (ION-CCI) was performed from the original description of Imamura et al. [Imamura, Y. et al., Exp. Brain Res., 1997, 116: 97-103]. A 1-cm-long incision was made along the gingivobuccal margin. The incision was begun proximal to the first molar. Approximately 0.5 cm of the ION was separated from the adhering tissue, and 2 ligatures (5-0 chromic gut) were tied loosely around it. The incision was sutured at 3 points with 4-0 silk. The sham operation was performed without ligation of the infraorbital nerve.\nThermal hyperalgesia was also determined as previously described [Ahn, D. K. et al., Pain, 2009, 146: 114-120; Park, C. K. et al., Pain, 2009, 144: 84-94]. Each rat was placed in a customized cylinder-type acrylic rodent restrainer (height 40 to 60 mm, length 70 to 120 mm). […] Each restrainer was placed in a darkened and noise-free room, and the animals were habituated for at least 30 min before the start of the experiment. After radiant heat was applied to the midregion of the left vibrissa pad, the head withdrawal latency was determined. The application of heat stimuli was performed using an infrared thermal stimulator (Infrared Diode Laser, LVI-808-10, LVI tech, Seoul, Korea). The power and current of the thermal stimulator were adjusted to 11 W and 18.1 A, respectively. The thermal stimuli produced stable withdrawal latencies of approximately 11 s for a 10-cm distance from the heat source to the vibrissa pad. […] After eugenol (10 μg/30 μL or 50 μg/30 μL; 2 mM or 10 mM, respectively) was administered subcutaneously into the vibrissa pad, the latencies of withdrawal responses were determined at 10, 20, 30, 40, 50, and 60 min and 24 h after eugenol injection. […]"}, "ION-CCI rats [6]": {"test_system": "ION-CCI rats", "experiment": "Mechanical allodynia, air-puff threshold head withdrawal test", "type": "in vivo, rat", "procedure": "as §1, §2\nOn postoperative 7 day, ION-CCI rats were placed in customized observation cages that were then placed in a darkened and noise-free room to conduct behavioral observations. The animals were acclimated for at least 30 min. Mechanical allodynia was determined as previously described [Ahn, D. K. et al., Pain, 2009, 146: 114-120], by observing withdrawal behavior, produced by 10 successive trials of constant air-puff pressure (4-s duration, 10-s intervals) in freely moving rats. The intensity and intervals of the air-puff pressure were controlled with a pneumatic pump module (BH2 system, Harvard Apparatus, Holliston, Mass.). The air puffs were applied through a 26-gauge metal tube (length, 10 cm) located 1 cm from the skin at a 90° angle. Thresholds were determined through the air-puff pressure at which each rat withdrew its head in 50% of the trials. The cutoff pressure for the air puffs was 40 psi. […] After eugenol (1 μg/30 μL, 5 μg/30 μL or 10 μg/30 μL; 200 μM, 1 mM, or 2 mM, respectively) was administered subcutaneously into the vibrissa pad, air-puff thresholds were determined at 15 and 30 min, and at 1, 2, 3, 4, 5, 6, and 24 hr after eugenol injection. In the control group, 30 μL of the vehicle (30% DMSO/saline) was injected subcutaneously."}, "[7]": {"conditions": "concentration lower than that which would inhibit VGSCs (50 μg; 10 mM)"}},
  "note": "“Also recorded” adds a separate entry of the source.",
  "data": [
    {"smiles": "CCN(c1ccccc1)c1cc(=NC)n(C)c(C)n1.Cl", "note": "[ZD7288]", "values": [
      {"measurement": "action potential duration", "setting": "Ih conductance", "value": "prolonged"},
      {"measurement": "repetitive firing during tetanic bursts", "setting": "Ih conductance", "value": "diminished"},
      {"measurement": "pain behavior", "setting": "injured nerve fibers", "value": "reversed"},
      {"measurement": "spontaneous discharges in injured nerve fibers", "setting": "injured nerve fibers", "value": "reversed"}
    ]},
    {"smiles": "C=CCc1ccc(O)c(OC)c1", "note": "[eugenol, 4-allyl-2-methoxyphenol]", "values": [
      {"measurement": "VGSC currents", "setting": "[1]", "value": "not affected"},
      {"measurement": "dV/dt of action potential", "setting": "TG neurons", "value": "not changed"},
      {"measurement": "firing rates of action potentials", "setting": "TG neurons; 50 pA depolarizing current injection, n=4", "value": "reduced"},
      {"measurement": "thermal pain / thermal hyperalgesia, previous study", "setting": "ION-CCI rats [2]", "value": "blocks thermal pain in a dose-dependent manner; also recorded: ameliorated thermal hyperalgesia"},
      {"measurement": "concentration at which eugenol inhibits VGSCs", "setting": "[3]", "value": 10, "unit": "mM"},
      {"measurement": "eugenol-induced Ih inhibition with 8-Br-cAMP", "setting": "[4]; 200 μM eugenol, 8-Br-cAMP (100 μM) in pipette solution, n=6", "value": "17.5±3.7", "unit": "%"},
      {"measurement": "eugenol-induced Ih inhibition with Rp-cAMPs", "setting": "[4]; 200 μM eugenol, Rp-cAMPs (100 μM), n=6", "value": "25.7±3.4", "unit": "%"},
      {"measurement": "eugenol-induced Ih inhibition with Sp-cAMPS", "setting": "[4]; 200 μM eugenol, Sp-cAMPs (100 μM), n=5", "value": "20.1±3.1", "unit": "%"},
      {"measurement": "Ih inhibition after pretreatment with NEM", "setting": "[4]; 200 μM eugenol, TG neurons pretreated 5 min with NEM (50 μM), n=8", "value": "69.2±4.4", "unit": "%"},
      {"measurement": "Ih inhibition", "setting": "[4]; 200 μM, TG neurons of adult (naive) rats, n=11", "value": "73.0±3.9", "unit": "%"},
      {"measurement": "Ih inhibition", "setting": "[4]; 200 μM, TG neurons of neonatal rats, n=27", "value": "63.3±1.6", "unit": "%"},
      {"measurement": "Ih inhibition", "setting": "[4]; 200 μM, injured DiI-labeled TG neurons of ION-CCI rats, n=7", "value": "67.5±4.0", "unit": "%"},
      {"measurement": "reversibility of Ih inhibition", "setting": "[4]; 200 μM, sequential application, FIG. 2A", "value": "reversible and repetitively reproduced"},
      {"measurement": "maximal Ih amplitude", "setting": "[4]; 200 μM, step pulses −50 to −120 mV, full range of voltages", "value": "reduced"},
      {"measurement": "Eugenol-induced Ih inhibition", "setting": "[4]; 200 μM, without NEM, n=8, FIG. 6A", "value": "66.1±1.8", "unit": "%"},
      {"measurement": "Ih block", "setting": "[4]; 500 μM and 1 mM, FIG. 3", "value": "complete Ih block"},
      {"measurement": "mean Vrev (reversal potential of Ih)", "setting": "[4]; after application of 200 μM eugenol, n=4, control −29.4±2.3 mV", "value": "−25.8±1.4", "unit": "mV"},
      {"measurement": "IC50", "setting": "[4]; read-out: IC50 of Ih inhibition, TG neurons, dose dependent, FIG. 3", "value": 157, "unit": "µM"},
      {"measurement": "thermal hyperalgesia / thermal hypersensitivity", "setting": "ION-CCI rats [5]; 50 μg subcutaneous, n=6, p<0.05", "value": "significantly reduced; also recorded: significantly inhibited"},
      {"measurement": "thermal hyperalgesia", "setting": "ION-CCI rats [5]; <10 μg", "value": "not effective"},
      {"measurement": "effect on thermal hyperalgesia", "setting": "ION-CCI rats [5]; [7]", "value": "no effect"},
      {"measurement": "thermal hypersensitivity", "setting": "ION-CCI rats [5]; low dose 10 μg subcutaneous, n=6", "value": "no effect"},
      {"measurement": "air-puff thresholds", "setting": "ION-CCI rats [6]; 1 μg subcutaneous into vibrissa pad, 7 day ION-CCI", "value": "significantly enhanced"},
      {"measurement": "air-puff threshold", "setting": "ION-CCI rats [6]; 5 to 10 μg subcutaneous, cutoff 40 psi", "value": "reached the cutoff"},
      {"measurement": "onset of effect", "setting": "ION-CCI rats [6]; FIG. 7B", "value": "occurred immediately"},
      {"measurement": "effect on mechanical allodynia", "setting": "ION-CCI rats [6]; [7]", "value": "ameliorating effect"},
      {"measurement": "antiallodynic effects on mechanical allodynia", "setting": "ION-CCI rats [6]; subcutaneous 1 μg, 5 μg, 10 μg, n=6 per group, p<0.05", "value": "significantly produced prolonged the antiallodynic effects"}
    ]}
  ]
}
